Measurements taken from the NIST ThermoML archive (doi:10.1016/j.tca.2016.06.023).
Numbers after ± are expanded uncertainties.

How the values were obtained:
[1] = xn = mol fraction of the nth substance listed; settings: 81.5 kPa, Liquid, Vibrating tube method
[2] = refractive index (Na D-line) (dimensionless); xn = mol fraction of the nth substance listed; settings: 81.5 kPa, Liquid, Standard Abbe refractometry

Clc1ccccc1 [chlorobenzene] + O=[N+]([O-])c1ccccc1
Settings | mass density, 293.15 K [kg/m3] | mass density, 303.15 K [kg/m3] | mass density, 313.15 K [kg/m3] | mass density, 323.15 K [kg/m3] | mass density, 333.15 K [kg/m3] | refractive index, 293.15 K | refractive index, 303.15 K | refractive index, 313.15 K | refractive index, 323.15 K | refractive index, 333.15 K
[1], x1 = 0.1792 | 1186.15 ± 10 | 1176.1 ± 10 | 1166.03 ± 10 | 1155.95 ± 10 | 1145.83 ± 10 | – | – | – | – | –
[1], x1 = 0.2018 | 1184.02 ± 10 | 1173.95 ± 10 | 1163.86 ± 10 | 1153.76 ± 10 | 1143.62 ± 10 | – | – | – | – | –
[1], x1 = 0.2994 | 1174.79 ± 10 | 1164.64 ± 10 | 1154.47 ± 10 | 1144.27 ± 10 | 1134.02 ± 10 | – | – | – | – | –
[1], x1 = 0.3967 | 1165.55 ± 10 | 1155.32 ± 10 | 1145.05 ± 10 | 1134.75 ± 10 | 1124.4 ± 10 | – | – | – | – | –
[1], x1 = 0.491 | 1156.55 ± 10 | 1146.24 ± 10 | 1135.88 ± 10 | 1125.49 ± 10 | 1115.04 ± 10 | – | – | – | – | –
[1], x1 = 0.5425 | 1151.59 ± 10 | 1141.23 ± 10 | 1130.83 ± 10 | 1120.39 ± 10 | 1109.89 ± 10 | – | – | – | – | –
[1], x1 = 0.6479 | 1141.41 ± 10 | 1130.96 ± 10 | 1120.45 ± 10 | 1109.9 ± 10 | 1099.31 ± 10 | – | – | – | – | –
[1], x1 = 0.7553 | 1130.91 ± 10 | 1120.36 ± 10 | 1109.75 ± 10 | 1099.09 ± 10 | 1088.41 ± 10 | – | – | – | – | –
[1], x1 = 0.8748 | 1119.07 ± 10 | 1108.4 ± 10 | 1097.7 ± 10 | 1086.93 ± 10 | 1076.14 ± 10 | – | – | – | – | –
[1], x1 = 1 | 1106.49 ± 10 | 1095.71 ± 10 | 1084.86 ± 10 | 1073.96 ± 10 | 1063.01 ± 10 | – | – | – | – | –
[2], x1 = 0.1792 | – | – | – | – | – | 1.54704 ± 0.01 | 1.54217 ± 0.01 | 1.53739 ± 0.01 | 1.53251 ± 0.01 | 1.52761 ± 0.01
[2], x1 = 0.2018 | – | – | – | – | – | 1.54638 ± 0.01 | 1.5415 ± 0.01 | 1.53671 ± 0.01 | 1.53184 ± 0.01 | 1.52695 ± 0.01
[2], x1 = 0.2994 | – | – | – | – | – | 1.54356 ± 0.01 | 1.53864 ± 0.01 | 1.53383 ± 0.01 | 1.52896 ± 0.01 | 1.52412 ± 0.01
[2], x1 = 0.3967 | – | – | – | – | – | 1.54078 ± 0.01 | 1.53584 ± 0.01 | 1.531 ± 0.01 | 1.52612 ± 0.01 | 1.52129 ± 0.01
[2], x1 = 0.491 | – | – | – | – | – | 1.53813 ± 0.01 | 1.53317 ± 0.01 | 1.52829 ± 0.01 | 1.52338 ± 0.01 | 1.51851 ± 0.01
[2], x1 = 0.5425 | – | – | – | – | – | 1.5367 ± 0.01 | 1.53172 ± 0.01 | 1.52682 ± 0.01 | 1.52186 ± 0.01 | 1.51697 ± 0.01
[2], x1 = 0.6479 | – | – | – | – | – | 1.53381 ± 0.01 | 1.52879 ± 0.01 | 1.52381 ± 0.01 | 1.51876 ± 0.01 | 1.51377 ± 0.01
[2], x1 = 0.7553 | – | – | – | – | – | 1.53092 ± 0.01 | 1.52581 ± 0.01 | 1.52072 ± 0.01 | 1.51554 ± 0.01 | 1.5104 ± 0.01
[2], x1 = 0.8748 | – | – | – | – | – | 1.52777 ± 0.01 | 1.52252 ± 0.01 | 1.51723 ± 0.01 | 1.51185 ± 0.01 | 1.50652 ± 0.01
[2], x1 = 1 | – | – | – | – | – | 1.52455 ± 0.01 | 1.51902 ± 0.01 | 1.51346 ± 0.01 | 1.50781 ± 0.01 | 1.50223 ± 0.01

Brc1ccccc1 [bromobenzene] + O=[N+]([O-])c1ccccc1
Settings | mass density, 293.15 K [kg/m3] | mass density, 303.15 K [kg/m3] | mass density, 313.15 K [kg/m3] | mass density, 323.15 K [kg/m3] | mass density, 333.15 K [kg/m3] | refractive index, 293.15 K | refractive index, 303.15 K | refractive index, 313.15 K | refractive index, 323.15 K | refractive index, 333.15 K
[1], x1 = 0.0998 | 1232.31 ± 10 | 1221.95 ± 10 | 1211.59 ± 10 | 1201.25 ± 10 | 1190.87 ± 10 | – | – | – | – | –
[1], x1 = 0.2013 | 1262.07 ± 10 | 1251.35 ± 10 | 1240.6 ± 10 | 1229.85 ± 10 | 1219.06 ± 10 | – | – | – | – | –
[1], x1 = 0.2985 | 1290.56 ± 10 | 1279.49 ± 10 | 1268.39 ± 10 | 1257.29 ± 10 | 1246.12 ± 10 | – | – | – | – | –
[1], x1 = 0.3968 | 1319.31 ± 10 | 1307.88 ± 10 | 1296.44 ± 10 | 1284.95 ± 10 | 1273.45 ± 10 | – | – | – | – | –
[1], x1 = 0.505 | 1350.9 ± 10 | 1339.07 ± 10 | 1327.25 ± 10 | 1315.36 ± 10 | 1303.45 ± 10 | – | – | – | – | –
[1], x1 = 0.5974 | 1377.81 ± 10 | 1365.65 ± 10 | 1353.48 ± 10 | 1341.27 ± 10 | 1329.01 ± 10 | – | – | – | – | –
[1], x1 = 0.6987 | 1407.3 ± 10 | 1394.76 ± 10 | 1382.18 ± 10 | 1369.62 ± 10 | 1357.01 ± 10 | – | – | – | – | –
[1], x1 = 0.8018 | 1437.33 ± 10 | 1424.41 ± 10 | 1411.45 ± 10 | 1398.53 ± 10 | 1385.53 ± 10 | – | – | – | – | –
[1], x1 = 0.8963 | 1464.97 ± 10 | 1451.69 ± 10 | 1438.42 ± 10 | 1425.19 ± 10 | 1411.84 ± 10 | – | – | – | – | –
[1], x1 = 1 | 1495.52 ± 10 | 1481.97 ± 10 | 1468.41 ± 10 | 1454.85 ± 10 | 1441.22 ± 10 | – | – | – | – | –
[2], x1 = 0.0998 | – | – | – | – | – | 1.55317 ± 0.01 | 1.54834 ± 0.01 | 1.54352 ± 0.01 | 1.53852 ± 0.01 | 1.53345 ± 0.01
[2], x1 = 0.2013 | – | – | – | – | – | 1.55394 ± 0.01 | 1.54905 ± 0.01 | 1.54416 ± 0.01 | 1.53909 ± 0.01 | 1.534 ± 0.01
[2], x1 = 0.2985 | – | – | – | – | – | 1.55468 ± 0.01 | 1.54973 ± 0.01 | 1.54477 ± 0.01 | 1.53962 ± 0.01 | 1.53452 ± 0.01
[2], x1 = 0.3968 | – | – | – | – | – | 1.55542 ± 0.01 | 1.55041 ± 0.01 | 1.54538 ± 0.01 | 1.54015 ± 0.01 | 1.53503 ± 0.01
[2], x1 = 0.505 | – | – | – | – | – | 1.55622 ± 0.01 | 1.55115 ± 0.01 | 1.54603 ± 0.01 | 1.54072 ± 0.01 | 1.53559 ± 0.01
[2], x1 = 0.5974 | – | – | – | – | – | 1.5569 ± 0.01 | 1.55177 ± 0.01 | 1.54658 ± 0.01 | 1.5412 ± 0.01 | 1.53605 ± 0.01
[2], x1 = 0.6987 | – | – | – | – | – | 1.55764 ± 0.01 | 1.55245 ± 0.01 | 1.54718 ± 0.01 | 1.54171 ± 0.01 | 1.53654 ± 0.01
[2], x1 = 0.8018 | – | – | – | – | – | 1.55838 ± 0.01 | 1.55313 ± 0.01 | 1.54777 ± 0.01 | 1.54223 ± 0.01 | 1.53704 ± 0.01
[2], x1 = 0.8963 | – | – | – | – | – | 1.55906 ± 0.01 | 1.55375 ± 0.01 | 1.54831 ± 0.01 | 1.54269 ± 0.01 | 1.53748 ± 0.01
[2], x1 = 1 | – | – | – | – | – | 1.55981 ± 0.01 | 1.55442 ± 0.01 | 1.5489 ± 0.01 | 1.54319 ± 0.01 | 1.53742 ± 0.01
